Laboratory results reported in US20220306640A1, “HYDANTOIN DERIVATIVE” (ONO PHARMACEUTICAL CO., LTD., priority 2019, published 2022).

Experiments:
DDR1 = target: T1, DDR1 (Homo sapiens, UniProt Q08345); assay: Measurement of DDR1 inhibitory activity (LanthaScreen system, in vitro test); assay type: binding; conditions: GST-DDR1, Kinase tracer 178
T1 construct: purchased Invitrogen
Protocol: Biological Experiment Example 1: Measurement of an DDR1 Inhibitory Activity (In Vitro Test)
An DDR1 enzyme inhibitory activity was measured by using LanthaScreen (registered trademark) system (Invitrogen) based on the attached instruction. The reagents used are shown below.
Assay buffer: 5× Kinase buffer A (Invitrogen) was diluted 5-fold with ddH2O.
1× Kinase Buffer A: 50 mmol/L HEPES pH 7.5, 10 mmol/L MgCl2, 1 mmol/L EGTA, 0.01% Brij-35.
2×DDR1 Solution: a solution containing […] GST-DDR1 (Invitrogen) was prepared by using Assay buffer.
2× Tracer/antibody solution: a solution containing 20 nmol/L Kinase tracer 178 (Invitorgen) and […] Eu-Anti-GST Antibody (Invitorogen) was prepared by using Assay buffer. Test compound solution: a solution containing a test compound of 2-fold concentration with respect to the final concentration was prepared by 50-fold diluting a DMSO solution of test compound of each concentration with the Assay buffer.
• 1 Add 5 μL 2×DDR1 Solution to proxiplate (PerkinElmer) • 2 Add 5 μL test compound solution to proxiplate • 3 Incubate for 15 min at RT • 4 Add 5 μL 2× Tracer/Antibody solution to all well Incubate 1 h at RT • 6 Read LANCE Eu on Envision (PerkinElmer) (Ex: 320 nm/Em 665 nm & 615 nm)
In the low control group, 5 μL Assay buffer was added instead of 5 μL 2×DDR1 Solution and the final 1% DMSO solution was added instead of test compound solution.
In the high control group, the final 1% DMSO solution was added instead of test compound solution.
(§1) The inhibition rate (%) in the test compound group was calculated based on the following mathematical formula.
% inhibition=100−100*(assay value of test compound−A)/(B−A) [Math. 1]
A: average value of low control group B: average value of high control group
Values of 50% inhibition rate (IC50 values) of the test compound were calculated from the inhibition curve based on the inhibition rate of the test compounds in each concentration.

[1] = target: T2, DDR1 phosphorylation in T-47D (ATCC, HTB-133) cells (Homo sapiens, UniProt Q08345); assay: Measurement of DDR1 phosphorylation suppression rate by using T-47D cells (p-DDR1 ELISA); assay type: cell-based; conditions: collagen Type I 10 μg/ml, p-DDR1 (panTyr) ELISA
T2 construct: host or cells: T-47D
Protocol: Biological Example 2: Measurement of DDR1 Phosphorylation Suppression Rate by Using T-47D (ATCC, HTB-133) cells
T-47D cells should be in culture for at least 7 days before using in the assay.
Cell culture medium: RPMI 1640 (HyClone) containing 10% Heat-FBS (HyClone) was prepared.
Assay medium: RPMI 1640 containing 0.1% BSA (solarbio) was prepared.
Collagen Type I (rat tail) solution: Assay medium containing 200 μg/mL Collagen I, rat tail (Gibco) was prepared.
Cell lysis buffer: a solution containing IX cell lysis buffer (CST) and 1× protease and phosphatase inhibitor cocktail (Thermofisher) was prepared by using ddH2O.
• 1. Collect cells into tubes and centrifuge at 1200 rpm for 5 min, at room temperature. Re-suspend the cells in cell culture medium pre-warmed to room temperature. • 2. Count cells and suspend at a density of 2×10^5/ml of cell culture medium. Plate the cells at 100 μL per well (Corning 3599 96-well plate, 2×10^4 cells per well final), mixing the cells well between each draw of the pipettor. • 3. Put lid on cell plate and place into the incubator at 37° C., 5% CO2 • 4. Culture cell overnight
• 1. Remove the plate from the incubator • 2. Cell medium is replaced with the 90 μL Assay medium.
• 1. Compound plates are pre-titrated using DMSO (10-fold dilution for 6 points) • 2. Dilute test compound using assay medium; Transfer 1 μL compound to other 96 well plate and then add 49 μL assay medium to each well (50 fold dilution). • 3. Add 5 μL the diluted test compound solution to the appropriate wells by pipettor. Compound final concentration is start from […] and DMSO final concentration is 0.1 • 4. Tap the plates gently to mix in compound. Reseal the plate with a lid and place in the incubator again, for 24 h.
• 1. Diluted collagen Type I in assay medium to the 200 μg/ml concentration • 2. Using the pipettor adds 5 μL of 200 μg/mL collagen Type I solution to the cell plate (compound well and High control well, collagen final conc. is 10 μg/ml). Add assay medium buffer to the control wells (low control well) • 3. Reseal the plate with a lid and place in the incubator. Incubate 24 h for collagen type I
• 1. After incubation, add 100 µL per well Cell lysis buffer. • 2. Incubate 30 min on ice, then freezing to −80° C. to get the fully cell lysates. • 3. Transfer cell lysates to new plate • 4. Centrifuge for 30 min (×4000 rpm) at 4° C. Then transfer the supernatant to a new plate.
p-DDR1 (panTyr) ELISA kit (CST) was used in the study. The measurement was carried out according to the attached instruction.
as §1
% inhibition=100−100*(assay value of test compound−A)/(B−A) [Math. 2]
A: average value of low control group B: average value of high control group Values of 50% inhibition rate (IC50 values) of the test compound were calculated from the inhibition curve based on the inhibition rate of the test compounds in each concentration.

T2 sequence (Q08345 19-913): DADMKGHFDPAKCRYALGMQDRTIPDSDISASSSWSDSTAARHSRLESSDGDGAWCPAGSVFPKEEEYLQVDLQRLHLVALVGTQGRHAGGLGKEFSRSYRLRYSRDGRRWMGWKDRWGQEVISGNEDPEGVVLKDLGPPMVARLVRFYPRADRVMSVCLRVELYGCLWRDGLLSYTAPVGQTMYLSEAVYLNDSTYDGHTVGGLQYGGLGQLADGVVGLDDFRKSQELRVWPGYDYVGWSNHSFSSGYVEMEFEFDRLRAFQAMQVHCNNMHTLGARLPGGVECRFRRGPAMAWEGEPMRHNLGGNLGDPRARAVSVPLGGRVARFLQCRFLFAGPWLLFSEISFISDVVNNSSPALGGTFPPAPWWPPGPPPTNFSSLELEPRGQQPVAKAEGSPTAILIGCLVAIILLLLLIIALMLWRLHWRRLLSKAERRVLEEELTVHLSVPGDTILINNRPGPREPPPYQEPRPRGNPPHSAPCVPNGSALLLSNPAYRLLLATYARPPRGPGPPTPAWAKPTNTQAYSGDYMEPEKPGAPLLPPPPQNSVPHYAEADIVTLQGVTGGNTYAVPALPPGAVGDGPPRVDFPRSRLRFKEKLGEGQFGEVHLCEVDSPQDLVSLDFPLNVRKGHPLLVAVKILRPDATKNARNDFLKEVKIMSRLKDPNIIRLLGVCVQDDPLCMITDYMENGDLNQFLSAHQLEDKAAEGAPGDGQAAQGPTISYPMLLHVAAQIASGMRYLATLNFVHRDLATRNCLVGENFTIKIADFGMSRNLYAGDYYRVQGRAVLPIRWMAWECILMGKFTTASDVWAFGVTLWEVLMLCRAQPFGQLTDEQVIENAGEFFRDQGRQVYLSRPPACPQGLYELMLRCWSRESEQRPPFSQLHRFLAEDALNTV
T1 sequence (Q08345 19-913): as above

SMILES	IC50 (DDR1)	IC50 [1]
Cn1cc(-c2cc(O[C@H]3C[C@H](N4C(=O)CN(c5cc(CN6CCNCC6)cc(C(F)(F)F)c5)C4=O)C3)ccn2)cn1 [Example 2(126), 3-(trans-3-{[2-(1-methyl-1H-pyrazol-4-yl)-4-pyridinyl]oxy}cyclobutyl)-1-[3-(1-piperazinylmethyl)-5-(trifluoromethyl)phenyl]-2,4-imidazolidinedione]	10 nM	6 nM
O=C1CN(c2cncc(C(F)(F)F)c2)C(=O)N1C1CC2CC1CC2Oc1ncnc2[nH]ccc12 (centres unmarked) [Example 3(63), 3-[5-(7H-pyrrolo[2,3-d]pyrimidin-4-yloxy)bicyclo[2.2.1]hept-2-yl]-1-[5-(trifluoromethyl)-3-pyridinyl]-2,4-imidazolidinedione]	7 nM	1 nM
CC(C)c1cc(N2C(=O)CN(c3ccc(CN4CCN(C)CC4)c(C(F)(F)F)c3)C2=O)ccc1Oc1ccnc(N)n1 [Example 3(78), 3-{4-[(2-amino-4-pyrimidinyl)oxy]-3-isopropylphenyl}-1-{4-[(4-methyl-1-piperazinyl)methyl]-3-(trifluoromethyl)phenyl}-2,4-imidazolidinedione]	4 nM	2 nM
CCc1cc(N2C(=O)CN(c3cc(C(C)(C)C(F)(F)F)on3)C2=O)ccc1Oc1ccnc(N)n1 [Example 3(101), 3-{4-[(2-amino-4-pyrimidinyl)oxy]-3-ethylphenyl}-1-[5-(1,1,1-trifluoro-2-methyl-2-propanyl)-1,2-oxazol-3-yl]-2,4-imidazolidinedione]	3 nM	2 nM
CC#Cc1cc(Oc2ccnc(N)n2)ccc1N1C(=O)CN(c2cncc(C(F)(F)F)c2)C1=O [Example 3(120), 3-{4-[(2-amino-4-pyrimidinyl)oxy]-2-(1-propyn-1-yl)phenyl}-1-[5-(trifluoromethyl)-3-pyridinyl]-2,4-imidazolidinedione]	7 nM	5 nM
Nc1nccc(Oc2ccc(N3C(=O)CN(c4cncc(C(F)(F)F)c4)C3=O)c(-c3ccccc3)c2)n1 [Example 3(122), 3-{5-[(2-amino-4-pyrimidinyl)oxy]-2-biphenylyl}-1-[5-(trifluoromethyl)-3-pyridinyl]-2,4-imidazolidinedione]	5 nM	7 nM
CCc1cc(N2CCN(c3cccc(C(F)(F)F)c3)C2=O)ccc1Oc1ccnc(N)n1 [Example 4(1), 1-{4-[(2-amino-4-pyrimidinyl)oxy]-3-ethylphenyl}-3-[3-(trifluoromethyl)phenyl]-2-imidazolidinone]	3 nM	1 nM
COc1cc2nccc(Cc3ccc(N4C(=O)CN(c5cccc(C(F)(F)F)c5)C4=O)cc3)c2cc1OC [Example 6(1), 3-{4-[(6,7-dimethoxy-4-quinolinyl)methyl]phenyl}-1-[3-(trifluoromethyl)phenyl]-2,4-imidazolidinedione]	5 nM	2 nM
C=Cc1cc(N2C(=O)CN(c3cncc(C(F)(F)F)c3)C2=O)ccc1Nc1ncnc2cc(OC)cc(F)c12 [Example 7(6), 3-{4-[(5-fluoro-7-methoxy-4-quinazolinyl)amino]-3-vinylphenyl}-1-[5-(trifluoromethyl)-3-pyridinyl]-2,4-imidazolidinedione]	3 nM	2 nM
COc1cc2nccc(N3CCc4cc(N5C(=O)CN(c6cncc(C(F)(F)F)c6)C5=O)ccc43)c2cc1OC [Example 9(1), 3-[1-(6,7-dimethoxy-4-quinolinyl)-2,3-dihydro-1H-indol-5-yl]-1-[5-(trifluoromethyl)-3-pyridinyl]-2,4-imidazolidinedione]	10 nM	20 nM
O=C1CN(c2cncc(C3(C(F)(F)F)CCO3)c2)C(=O)N1c1ccc(Oc2cnc3[nH]ncc3c2)cc1 (centres unmarked) [Example 13, 3-[4-(1H-pyrazolo[3,4-b]pyridin-5-yloxy)phenyl]-1-{5-[2-(trifluoromethyl)-2-oxetanyl]-3-pyridinyl}-2,4-imidazolidinedione]	3 nM	3 nM

More lines, in order of falling IC50 (DDR1), values ahead:

IC50 (DDR1)	IC50 [1]	SMILES
3 nM	3 nM	CC(C)c1cc(N2C(=O)CN(c3cncc(C(F)(F)F)c3)C2=O)ccc1Oc1ccnc2[nH]c(=O)[nH]c12 [Example 2(149), 3-{3-isopropyl-4-[(2-oxo-2,3-dihydro-1H-imidazo[4,5-b]pyridin-7-yl)oxy]phenyl}-1-[5-(trifluoromethyl)-3-pyridinyl]-2,4-imidazolidinedione]
2 nM	0.1 nM	CCc1cc(N2C(=O)CN(c3cncc(C(F)(F)F)c3)C2=O)ccc1Oc1ccnc2[nH]ccc12 [Example 3(176), 3-[3-ethyl-4-(1H-pyrrolo[2,3-b]pyridin-4-yloxy)phenyl]-1-[5-(trifluoromethyl)-3-pyridinyl]-2,4-imidazolidinedione]
1 nM	1 nM	Cc1cc(N2C(=O)CN(c3cncc(C(F)(F)F)c3)C2=O)ccc1Oc1ccnc2ccnn12 [Example 3(47), 3-[3-methyl-4-(pyrazolo[1,5-a]pyrimidin-7-yloxy)phenyl]-1-[5-(trifluoromethyl)-3-pyridinyl]-2,4-imidazolidinedione]
1 nM	1 nM	O=C1CN(c2cncc(C(F)(F)F)c2)C(=O)N1C1CC2(CC(Oc3ncnc4[nH]ccc34)C2)C1 (centres unmarked) [Example 3(66), 3-[6-(7H-pyrrolo[2,3-d]pyrimidin-4-yloxy)spiro[3.3]hept-2-yl]-1-[5-(trifluoromethyl)-3-pyridinyl]-2,4-imidazolidinedione]
1 nM	1 nM	Cc1cc(Oc2ccnc(N)n2)ccc1N1C(=O)CN(c2cc(F)cc(C(F)(F)F)c2)C1=O [Example 3(111), 3-{4-[(2-amino-4-pyrimidinyl)oxy]-2-methylphenyl}-1-[3-fluoro-5-(trifluoromethyl)phenyl]-2,4-imidazolidinedione]
